According to patent US7067533B2, “Aminophenoxyacetamide derivatives and pharmaceutical composition containing thereof” (Daiichi Asubio Pharma Co., Ltd., priority 2000, dated 2006):

Experiments:
[1] = system: primary cultures (neurons) from cerebral cortices of fetal Wistar rats; test: Biological Test 1: neuroprotective effect against glutamate induced neuronal cell death (MTT); assay type: cell-based, rat; details: Compound: 1 μM; glutamate 1 mM; control group = 100%
Protocol: Cultures were maintained at 37 C. in a 90% air/10% CO2 humidified incubator. Glutamate was added to the culture at day 4 to the final concentration of 1 mM. […] MTT was dissolved in phosphate buffered saline (PBS, pH 7.4) at 5 mg/ml and filtered to sterilize and remove a small amount of insoluble residue present in some batches of MTT, and added to the cultures at a final concentration of 0.5 mg/ml.
The test compounds (1 μM) was added 24 hrs prior to glutamate treatment and simultaneously with glutamate.
Survival rate of living cells (%) =[(test compound group—glutamic acid treated group)÷(control group—glutamic acid treated group)]×100

[2] = system: primary cultures (neurons) from cerebral cortices of fetal Wistar rats; test: Biological Test 2: antagonism of the neuroprotective effect by MTA treatment (MTT); assay type: cell-based, rat; details: 0.75 mM MTA added 30 minutes before test compound, glutamate
Protocol: This biological test is performed to determine whether the neuroprotective effect of the test compounds is due to the activation of receptors of physiological active substances or not, by using antagonistic test for neutralizing antibody and Inhibitor for FGF, NT-3, NT-4/5, BDNF, IGF-I/II, NGF, PDGF and estrogen, respectively.
Chem., 268, 4244 (1993)]. Therefore, the neuroprotective effect of the test compounds is inhibited by treatment of MTA, this effect is depended by the signal transfer effect through the phosphorylation of FGF receptor.
The inhibitors of the various kinds of receptor were dissolved in the optimum concentration, and MTA was dissolved in the concentration of 7.5 mM, just before the using. 30 minutes before the treatment of the test compounds, the optimum concentration of each inhibitors or 0.75 mM of MTA was added, and the neuroprotective effect of the test compounds was determined by mean of MTT method.

[3] = system: cerebral edema (water content of cerebral hemisphere), Wistar rats; test: Biological Test 5: cerebral edema suppressing effect; assay type: in vivo; details: iv, 144 h, rat, post-TBI day 6, read-out: Cerebral edema suppressing rate (%); for inhibition in vivo at 1 mg/kg: 1 mg/kg intravenously just after the operation; for inhibition in vivo at 3 mg/kg: 3 mg/kg intravenously just after the operation
Protocol: Adult male Wistar rats weighing 210–230 g were used in the present study and housed in an artificially controlled environment with 12-hour light/dark cycle. Animals were anesthetized with pentobarbital sodium (50 mg/kg of body weight, i.p., Nembutal, Dinabbott, Japan) and placed in a stereotaxic apparatus. The skull was exposed and a hole was made on the parietal bone; 1.5 mm posterior and 0.8 mm lateral to the bregma. All procedures were performed under a surgery microscope to avoid excess irritation to the meninges and the underlying brain. A brass screw with a blunt tip (1.0 mm in diameter and 3.0 mm in length, Biomedica, Japan) was inset in the hole. The screw tip protruding intracranially was approximately 2.5 mm, which stuck into the parietal part of the right cerebrum through the meninges. In sham-operated rats, scalp was closed without attaching a screw to the hole. After surgery, all rats were kept in their original dens until sacrifice. Rats were allowed to feed chow and water ad libitum.
Under anesthesia the rat cerebral hemispheres of the target were processed for water content on post-TBI day 6 (n=6). The cerebral hemispheres dissected out were weighed, dried for 24 hours at 110 degree (Celsius) and then weighed again. The subtracted amount of the wet and dry weights was regarded as tissue water of the target, and utilized for the analysis of the cerebral edema.
The water content was calculated by using the following formula:
Water content (%) =[(wet weight of hemisphere—dry weight of hemisphere)/wet weight of hemisphere]×100
The test compounds were intravenously administered just after the operation via tail vein of the rats.

[4] = system: primary cultures (neurons) from cerebral cortices of fetal Wistar rats; test: Biological Test 4: neuroprotective inhibiting effect by calbindin antisense oligonucleotide (MTT); assay type: cell-based, rat; details: 300 μM glutamic acid

Compound	Survival Rate (%) (Compound: 1 μl) [1]	Survival Rate (%) (Compound: 1 μl & MTA treatment) [2]	also measured
Cc1c(C)c(N)c(C)c(OCC(=O)N(C)C2CCN(Cc3ccc(C#N)cc3)CC2)c1C [Compound 34, 2-(3-Amino-2,4,5,6-tetramethylphenoxy)-N-[1-(4-cyano-benzyl)-4-piperidinyl]-N-methylacetamide]	74	21	–
Cc1c(C)c(OCC(=O)N(C)C2CCN(CC(O)c3ccccc3)CC2)c(C)c(C)c1N (centres unmarked) [Compound 11, 2-(4-Amino-2,3,5,6-tetramethylphenoxy)-N-[1-(2-hydroxy-2-phenylethyl)-4-piperidinyl]-N-methylacetamide]	74	56	–
Cc1c(C)c(OCC(=O)N(C)C2CCN(CCOc3ccccc3)CC2)c(C)c(C)c1N [Compound 14, 2-(4-Amino-2,3,5,6-tetramethylphenoxy)-N-methyl-N-[1-(2-phenoxyethyl)-4-piperidinyl]acetamide]	–	–	inhibition in vivo at 1 mg/kg [3]: 18.7%
Cc1c(C)c(C)c(OCC(=O)N(C)C2CCN(CCc3ccccc3)CC2)c(N)c1C [Compound 29, 2-(2-Amino-3,4,5,6-tetramethylphenoxy)-N-methyl-N-[1-(2-phenylethyl)-4-piperidinyl]acetamide]	–	–	inhibition in vivo at 1 mg/kg [3]: 13.8%
Cc1c(C)c(NCC(=O)N(C)C2CCN(c3ccc(F)cc3)CC2)c(C)c(C)c1N [Compound 38, 2-(4-Amino-2,3,5,6-tetramethylanilino)-N-[1-(4-fluorophenyl)-4-piperidinyl]-N-methylacetamide]	124	19	Survival Rate (%) [antisense (+): 5 μM] ([4]; 0.1 μM): 28%; Survival Rate (%) [antisense (−)] ([4]; 0.1 μM): 100%; Survival Rate (%) [antisense (+): 5 μM] ([4]; 1 μM): 33%; Survival Rate (%) [antisense (−)] ([4]; 1 μM): 106%
BFGF: Reference test substance in Table 10 (1 ng, 10 ng); not defined further; FGF is a physiologically active substance inducing CalbindinD-28k	–	–	Survival Rate (%) [antisense (+): 5 μM] ([4]; 1 ng): 8%; Survival Rate (%) [antisense (−)] ([4]; 1 ng): 71%; Survival Rate (%) [antisense (+): 5 μM] ([4]; 10 ng): 35%; Survival Rate (%) [antisense (−)] ([4]; 10 ng): 101%
CCCCN1CCC(N(C)C(=O)COc2c(C)c(C)c(N)c(C)c2C)CC1 [Compound 9, 2-(4-Amino-2,3,5,6-tetramethylphenoxy)-N-(1-butyl-4-piperidinyl)-N-methylacetamide]	104	5	–
Cc1c(C)c(OCC(=O)N(C)C2CCN(C[C@@H]3C[C@H]3c3ccccc3)CC2)c(C)c(C)c1N (relative stereo) [Compound 13, 2-(4-Amino-2,3,5,6-tetramethylphenoxy)-N-methyl-N-[1-(trans-2-phenyl-1-cyclopropylmethyl)-4-piperidinyl]acetamide]	65	13	inhibition in vivo at 3 mg/kg [3]: 13.1%
Cc1c(C)c(OC(C)C(=O)N(C)C2CCN(CC(=O)N(C)c3ccccc3)CC2)c(C)c(C)c1N (centres unmarked) [Compound 27, 2-(4-Amino-2,3,5,6-tetramethylphenoxy)-N-methyl-N-{1-[2-(N-methylanilino)-2-oxoethyl]-4-piperidinyl}propanamide]	–	–	inhibition in vivo at 3 mg/kg [3]: 11.8%
Cc1c(C)c(NCC(=O)N(C)C2CCN(c3nc4ccccc4s3)CC2)c(C)c(C)c1N [Compound 37, 2-(4-Amino-2,3,5,6-tetramethylanilino)-N-[1-(1,3-benzothiazol-2-yl)-4-piperidinyl]-N-methylacetamide]	95	20	–
Cc1c(C)c(OCC(=O)N(C)C2CCN(Cc3ccc(C(N)=O)cc3)CC2)c(C)c(C)c1N [Compound 19, 4-({4-[[(4-Amino-2,3,5,6-tetramethylphenoxy)acetyl]-(methyl)amino]-1-piperidinyl}methyl)bezamide]	96	28	–
Cc1c(C)c(OCC(=O)N(C)C2CCN(C(C)Cc3ccccc3)CC2)c(C)c(C)c1N (centres unmarked) [Compound 22, 2-(4-Amino-2,3,5,6-tetramethylphenoxy)-N-methyl-N-[1-(1-methyl-2-phenylethyl)-4-piperidinyl]acetamide]	79	32	–
Cc1c(C)c(OC(C)C(=O)N(C)C2CCN(CC3CC3c3ccccc3)CC2)c(C)c(C)c1N (stereo not drawn) [Compound 26, 2-(4-Amino-2,3,5,6-tetramethylphenoxy)-N-methyl-N-[1-(trans-2-phenyl-1-cyclopropylmethyl)-4-piperidniyl]propanamide]	–	–	inhibition in vivo at 3 mg/kg [3]: 11.9%
Cc1c(C)c(OCC(=O)N(C)C2CCN(CCN3CCOCC3)CC2)c(C)c(C)c1N [Compound 16, 2-(4-Amino-2,3,5,6-tetramethylphenoxy)-N-methyl-N-{1-[2-(4-morpholinyl)ethyl]-4-piperidinyl}acetamide]	101	33	–
Cc1c(C)c(OCC(=O)N(C)C2CCN(CC(=O)c3ccccc3)CC2)c(C)c(C)c1N [Compound 10, 2-(4-Amino-2,3,5,6-tetramethylphenoxy)-N-[1-(2-phenyl-2-oxoethyl)-4-piperidinyl]-N-methylacetamide]	86	31	–
Cc1c(C)c(N)c(C)c(OCC(=O)N(C)C2CCN(C(=O)c3ccccc3)CC2)c1C [Compound 33, 2-(3-Amino-2,4,5,6-tetramethylphenoxy)N-(1-benzoyl-4-piperidinyl)-N-methylacetamide]	120	46	–
Cc1cc(C)c(NCC(=O)N(C)C2CCN(c3ccc(F)cc3)CC2)c(C)c1N [Compound 39, 2-(3-Amino-2,4,6-trimethylanilino)-N-[1-(4-fluoro-phenyl)-4-piperidinyl]-N-methylacetamide]	94	28	–
Cc1c(C)c(OC(C)(C)C(=O)N(C)C2CCN(CCc3ccccc3)CC2)c(C)c(C)c1N [Compound 28, 2-(4-Amino-2,3,5,6-tetramethylphenoxy)-N,2-dimethyl-N-[1-(2-phenylethyl)-4-piperidinyl]propanamide]	103	46	–
Cc1c(C)c(OCC(=O)N(C)C2CCN(CC(=O)N(C)c3ccccc3)CC2)c(C)c(C)c1N [Compound 15, 2-(4-Amino-2,3,5,6-tetramethylphenoxy)-N-methyl-N-{1-[2-(N-methylanilino)-2-oxoethyl]-4-piperidinyl}acetamide]	–	–	inhibition in vivo at 1 mg/kg [3]: 14.7%
Cc1c(C)c(OCC(=O)N(C)C2CCN(CCOCC(O)c3ccccc3)CC2)c(C)c(C)c1N (centres unmarked) [Compound 17, 2-(4-Amino-2,3,5,6-tetramethylphenoxy)-N-{1-[2-(2-hydroxy-2-phenylethoxy)ethyl]-4-piperidinyl}-N-methylacetamide]	85	55	–
Cc1c(C)c(OCC(=O)N(C)C2CCN(CC(=O)Nc3ccccc3)CC2)c(C)c(C)c1N [Compound 7, 2-(4-Amino-2,3,5,6-tetramethylphenoxy)-N-[1-(2-anilino-2-oxoethyl)-4-piperidinyl]-N-methylacetamide]	76	32	–
